One block for each compound: values may come before it.
What was measured:
[1] = system: patients having a variety of solid cancers; test: Clinical Phase I equivalent test, continuous intravenous infusion for 336 hours once every three weeks; format: in vivo, human
Method: The frequency of adverse events and treatment effect were studied in a case where a course was repeatedly performed in which the antitumor agent was administered to cancer patients by continuous intravenous infusion in an amount of 2.0 to 4.0 mg/m^2 of CNDAC (free base) for a duration of 336 hours once every three weeks.
(§1) The present test was conducted on patients having a variety of solid cancers for which standard treatment was ineffective or no treatment was available (e.g., digestive system cancer, head and neck cancer, breast cancer, and the like). The test is equivalent to the Clinical Phase I Test, which primarily evaluates safety so as to determine a recommended dose (RD) that can be safely administered with no side effect concerns in the Clinical Phase II Test implemented per cancer type. Treatment effect on tumors was also evaluated in the test when possible. In the treatment effect test, the cytoreductive effect was determined based on comprehensive evaluation of target lesions (lesions having a size measurable at a slice width on CT and a larger size) and non-target lesions (all lesions not included in the target lesions), with reference to the RECIST evaluation method (Journal of the National Cancer Institute, 2000, Vol. 92, No. 3, 205-216). […] SD (stable disease) indicates a case where reduction of tumors was not enough to be determined as PR, but insufficient to be determined as PD; and the progression of tumors stopped and no exacerbation was observed.

[2] = system: patients having a variety of solid cancers; test: Clinical Phase I equivalent test, continuous intravenous infusion for 168 hours once every two weeks; format: in vivo, human
Method: as §1
The frequency of adverse events and treatment effect were studied in a case where a course was repeatedly performed in which the antitumor agent was administered by continuous intravenous infusion in an amount of 3.0 to 4.0 mg CNDAC (free base) per square meter of body surface area for a duration of 168 hours once every two weeks. Tested patients, evaluation methods, and evaluation standards are the same as those in the test in Example 1.

[3] = Side effect (body weight suppression) in tumor-bearing rats having PAN-4; format: in vivo, rat
Method: (§2) A relation between the antitumor effect and side effect (body weight suppression) was studied in a continuous intravenous infusion of CNDAC administered to tumor-bearing rats having the human pancreatic cancer line PAN-4. FIGS. 3 and 4 indicate the results.
(§3) CNDAC was administered by continuous intravenous infusion (continuously injected under the skin for 24 hours using a subcutaneous implantation constant-speed pump) in an amount of 36 mg/kg/day on Day 1, or 4.5 mg/kg/day on Days 1 to 14. Relative tumor volume was obtained and compared in a CNDAC administered group and a non-administered group (control group) of each administration method.
Further, body weight reduction in the two-week continuous intravenous infusion group and 24-hour continuous intravenous infusion group was studied.

[4] = system: human pancreatic cancer line PAN-4; test: Antitumor effect of continuous intravenous infusion in tumor-bearing rats; format: in vivo, rat; conditions: two-week continuous infusion 4.5 mg/kg/day Days 1 to 14 compared with 24-hour continuous infusion 36 mg/kg/day Day 1
Method: as §2, §3

[5] = system: human colon cancer line KM20C; test: Antitumor effect of continuous intravenous infusion of CNDAC and gemcitabine in tumor-bearing rats; format: in vivo, rat
Method: The antitumor effect was studied in a continuous intravenous infusion of CNDAC and gemcitabine administered to tumor-bearing rats having the human colon cancer line KM20C. FIG. 2 indicates the results.
as §3, with “on Days 1 and 8,” for “on Day 1,”, “14. Alternatively, gemcitabine was administered by rapid intravenous infusion in an amount of 300 mg/kg/day once a week for two weeks (Days 1 and 8), or by continuous intravenous infusion in an amount of 1.0 mg/kg/day for two weeks.” for “14.”, “a drug” for “a CNDAC”

[6] = system: human-derived tumor lines; test: Antitumor tests using animal models, rapid intravenous infusion; format: in vivo; conditions: rapid intravenous infusion for 10 consecutive days, five times a week for two weeks, or once a week for two weeks; majority of lines; regrowth after completion
From the text: However, the regrowth of tumors was observed after completion of the administration, and the cytoreductive effect was not necessarily shown. Further, increasing the dosage so as to increase the antitumor effect causes toxicity, including body weight suppression and leucopenia.

[7] = system: human lung cancer line LX-1; test: Antitumor effect, rapid vs continuous intravenous infusion in tumor-bearing rats; format: in vivo, rat; conditions: continuous infusion 4.5 mg/kg/day for two weeks compared with rapid intravenous infusion (800 mg/kg/day Days 1, 5, 8, 12 or 20 mg/kg/day Days 1-5 and 8-12)
Method: The antitumor effect was studied in rapid intravenous infusion and continuous intravenous infusion of CNDAC in tumor-bearing rat models. FIG. 1 indicates the study results of the antitumor effect in rapid intravenous infusion and continuous intravenous infusion of CNDAC administered to tumor-bearing rats having the human lung cancer line LX-1.
CNDAC (free base) was administered by rapid intravenous infusion (rapidly injected into a caudal vein using a syringe) in an amount of 800 mg/kg/day on Days 1, 5, 8, and 12, or 20 mg/kg/day on Days 1 to 5 and 8 to 12. Alternatively, CNDAC was administered by continuous intravenous infusion (continuously injected under the skin for 24 hours using a subcutaneous implantation constant-speed pump) in an amount of 4.5 mg/kg/day for two weeks. Relative tumor volume (a ratio of tumor volume on Day 1 of administration and that on Day 14 of administration) was obtained in a CNDAC administered group and a non-administered group (control group) of each administration method, and the obtained relative tumor volume was compared.

[8] = system: human breast cancer and colon cancer lines; test: Antitumor effect, rapid vs continuous intravenous infusion in tumor-bearing rat models, further lines; format: in vivo
[9] = 3.0 mg/m^2, 336 hours once every three weeks
[10] = 4.0 mg/m^2, 168 hours once every two weeks

platelet reduction of Grade 4 ([1]; 4.0 mg/m^2, 336 hours once every three weeks): one out of the three cases
febrile neutropenia of CTCAE Grade 3 ([1]; 4.0 mg/m^2, 336 hours once every three weeks, three cases): all cases
febrile neutropenia of CTCAE Grade 3 [2, 10]: one case
neutropenia of Grade 4 [2, 10]: one case
Compound: N#C[C@H]1[C@H](O)[C@@H](CO)O[C@H]1n1ccc(N)nc1=O [CNDAC, 4-amino-1-(2-cyano-2-deoxy-β-D-arabinofuranosyl)-2(1H)-pyrimidinone]
adverse event requiring interruption of the administration ([1]; 2.0 mg/m^2, 336 hours once every three weeks): no adverse event was seen that required interruption of the administration
reduction (tumor) in one SD case ([1]; 2.0 mg/m^2, 336 hours once every three weeks, one case): about 15%
dose limiting toxicity (DLT) [1, 9]: not observed
neutropenia of Grades 3 and 4 [1, 9]: found in the second case each of two courses
efficacy (SD, stable disease), cases ([1]; 3.0 mg/m^2, 336 hours once every three weeks, RECIST): one out of the three cases
dose limiting toxicity (DLT) observed, cases ([1]; 4.0 mg/m^2, 336 hours once every three weeks, three out of three cases): 100%
adverse event requiring interruption of the administration ([2]; 3.0 mg/m^2, 168 hours once every two weeks): no adverse event was seen that required interruption of the administration
efficacy (SD, stable disease), cases ([2]; 4.0 mg/m^2, 168 hours once every two weeks, two out of the three cases): 67%
dose limiting toxicity (DLT) observed, cases ([2]; 4.0 mg/m^2, 168 hours once every two weeks, two out of three evaluable cases): 67%
body weight reduction at maximum ([3]; 24-hour continuous intravenous infusion group, 36 mg/kg/day on Day 1): 20.4%
body weight reduction at maximum ([3]; two-week continuous intravenous infusion, 4.5 mg/kg/day on Days 1 to 14): 4.6%
antitumor effect (relative tumor volume) [4]: significantly high antitumor effect
tumor volume after completion of administration ([5]; CNDAC continuous intravenous infusion (36 mg/kg/day Days 1 and 8 or 4.5 mg/kg/day Days 1 to 14)): significantly reduced even after the administration was completed
antitumor and antiproliferative effects [6]: strong antitumor and antiproliferative effects
antitumor effect (relative tumor volume) [7]: high antitumor effect
antitumor effect of continuous compared with rapid intravenous infusion [8]: The effect was exhibited

Compound: Nc1ccn([C@@H]2O[C@H](CO)[C@@H](O)C2(F)F)c(=O)n1 [gemcitabine, reference compound]
tumor volume after completion of administration ([5]; gemcitabine continuous intravenous infusion 1.0 mg/kg/day for two weeks): not reduced after the administration was completed

Reference: patent publication US7863255B2, “Methods of administering antitumor agent comprising deoxycytidine derivative” (Taiho Pharmaceutical Co., Ltd., priority 2008, dated 2011)
